Experimental data from US20020177554A1, “Novel peptides for use in treatment of T-cell mediated cartilage destruction in autoimmune diseases” (Akzo Nobel N.V., priority 1995, published 2002).
Ends that are not written are not given here.

B1: HAG2 (peptide)
peptide: H-AGWLADRSVRYPI-OH
notes: Synthetic peptide with free amino and carboxy termini; The residue range on HAG is not tied to this label
B2: HAG3 (peptide)
peptide: H-AGWLADGSLRYPI-OH
notes: as for B1
B3: HCLP1 (peptide)
peptide: AGWLSDGSVQYPI
notes: also called HCIP1

Experiments:
PBMC from RA patients = test: Proliferative responses of PBMC from RA patients ([3H]thymidine incorporation); assay type: cell-based, human; details: peptide 50 μg/ml, mean of three or four measurements
[1] = biological target: T1, HLA-DR4 (DRB1*0401) molecules, affinity purified (human); test: semi-quantitative competition with biotinylated IHA(307-319)F for purified HLA-DR; relative IC50 grade read by eye from ECL blot
T1 construct: mature; Used at 0.05-5 uM in the assay

[2] = biological target: T1, HLA-DR4 (DRB1*0401) molecules, affinity …; test: semi-quantitative competition with biotinylated IHA(307-319)F for purified HLA-DR; range taken from the table legend for grade ++
[3] = biological target: T1, HLA-DR4 (DRB1*0401) molecules, affinity …; test: semi-quantitative competition with biotinylated IHA(307-319)F for purified HLA-DR; range taken from the table legend for grade +

| Molecule | Proliferative response of PBMC, [3H]TdR incorporation (PBMC from RA patients; donor 191 (RA), background 320) | Proliferative response of PBMC, [3H]TdR incorporation (PBMC from RA patients; donor 209 (RA), background 405) | relative binding affinity IC50 (eIC50) [1] | IC50 [2] | also measured |
| --- | --- | --- | --- | --- | --- |
| AGWLADGSLRYPI [HAG3] | 233 count per 5 min | 1094 count per 5 min | – | – | – |
| AGWLADRSVRYPI [HAG2] | 1061 count per 5 min | 1115 count per 5 min | – | – | – |
| AGWLSDGSVQYPI [HCLP1] | – | 1503 count per 5 min | – | – | Proliferative response of PBMC, [3H]TdR incorporation (PBMC from RA patients; donor 227 (RA), background 833): 1964 count per 5 min |
| B1 | – | – | 1 to 10 µM | 1 to 10 µM | – |
| B2 | – | – | 1 to 10 µM | 1 to 10 µM | – |
| B3 | – | – | 10 to 100 µM | – | IC50 [3]: 10 to 100 µM |
